Measurements from the supplement of paper PMC5908809.

Legend:
Test in all cases: relative IC50 (inflection point of fitted viability curve, relative to fitted max inhibition); higher = less sensitive
Conditions in all cases: 72 h
[1] = system: normal primary NK cells, pool 3 (3 donors) (IL-2 2.5 ng/mL)
Protocol: (§1)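 Drug sensitivity and resistance testing: 5 concentrations over a 10,000-fold range, 72 h at 37 °C, viability by CellTiter-Glo normalised to DMSO and benzethonium chloride controls. IC50 is the inflection point of a logistic fit (min fixed at 0, max fitted), so it is relative to the fitted maximal inhibition. Kept only where fitted max inhibition is at least 50%.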

[2] = system: normal primary NK cells, pool 1 (3 donors), resting (IL-2 0 ng/mL)
Protocol: as §1

SNK-6 (IL-2 2.5 ng/mL) = system: SNK-6 (IL-2 2.5 ng/mL)
Protocol: as §1

DERL-7 (IL-2 2.5 ng/mL) = system: DERL-7 (IL-2 2.5 ng/mL)
Protocol: as §1

NK-92 (IL-2 2.5 ng/mL) = system: NK-92 (IL-2 2.5 ng/mL)
Protocol: as §1

NK-YS (IL-2 2.5 ng/mL) = system: NK-YS (IL-2 2.5 ng/mL)
Protocol: as §1

KHYG-1 (IL-2 2.5 ng/mL) = system: KHYG-1 (IL-2 2.5 ng/mL)
Protocol: as §1

[3] = system: normal primary NK cells, pool 1 (3 donors) (IL-2 2.5 ng/mL)
Protocol: as §1

KAI3 (IL-2 2.5 ng/mL) = system: KAI3 (IL-2 2.5 ng/mL)
Protocol: as §1

NKL (IL-2 2.5 ng/mL) = system: NKL (IL-2 2.5 ng/mL)
Protocol: as §1

[4] = system: normal primary NK cells, pool 2 (3 donors) (IL-2 2.5 ng/mL)
Protocol: as §1

IMC-1 (IL-2 20 ng/mL) = system: IMC-1 (IL-2 20 ng/mL)
Protocol: as §1

YT (IL-2 2.5 ng/mL) = system: YT (IL-2 2.5 ng/mL)
Protocol: as §1

Structure (SMILES) | relative IC50 [1] [nM] | relative IC50 [2] [nM] | relative IC50 (SNK-6 (IL-2 2.5 ng/mL)) [nM] | relative IC50 (DERL-7 (IL-2 2.5 ng/mL)) [nM] | relative IC50 (NK-92 (IL-2 2.5 ng/mL)) [nM] | relative IC50 (NK-YS (IL-2 2.5 ng/mL)) [nM] | relative IC50 (KHYG-1 (IL-2 2.5 ng/mL)) [nM] | relative IC50 [3] [nM] | relative IC50 (KAI3 (IL-2 2.5 ng/mL)) [nM] | relative IC50 (NKL (IL-2 2.5 ng/mL)) [nM] | relative IC50 [4] [nM] | relative IC50 (IMC-1 (IL-2 20 ng/mL)) [nM] | relative IC50 (YT (IL-2 2.5 ng/mL)) [nM]
CS(=O)(=O)c1ccc(C2=C(c3ccccc3)C(=O)OC2)cc1 [Rofecoxib] | > 10000 | > 10000 |  |  |  |  |  |  |  |  |  |  | 
Oc1c2ccccc2c2c3c(cccc13)N=N2 |  |  | 12200 | 2570 | 4980 | 13200 | 9700 | 11000 | 10600 | 4960 |  |  | 
O=NN(CCCl)C(=O)NC1CCCCC1 [Lomustine] | > 10000 |  |  | > 10000 | > 10000 |  |  | > 10000 |  | > 10000 | > 10000 | > 10000 | 
COc1ccc(-c2nc(N3CCOCC3)c3sc(CN(C)c4ncc(C(=O)NO)cn4)cc3n2)cn1 [CUDC-907] | 8.82 | 3.45 | 7.89 | 1.6 | 2.64 | 8.33 | 2.32 | 6.42 | < 1 | < 1 | 5.81 | 13 | 14.7
Cn1cncc1[C@@](N)(c1ccc(Cl)cc1)c1ccc2c(c1)c(-c1cccc(Cl)c1)cc(=O)n2C [Tipifarnib] | 723 | 264 | 74.1 | 91.8 | 270 | 61.6 | 35.2 | 1110 | 94.8 | 401 | 1580 | 1880 | 349
CN[C@@H]1C[C@H]2O[C@@](C)([C@@H]1OC)n1c3ccccc3c3c4c(c5c6ccccc6n2c5c31)C(=O)N[C@H]4O [UCN-01] | 126 | 204 | 15.3 | 27 | 39.3 | 51.1 | 24.9 | 97.1 | 21.3 | 53.3 | 75.8 | 375 | 184
CC(C)C[C@H](NC(=O)[C@H](CCc1ccccc1)NC(=O)CN1CCOCC1)C(=O)N[C@@H](Cc1ccccc1)C(=O)N[C@@H](CC(C)C)C(=O)[C@@]1(C)CO1 [Carfilzomib] | 2.58 | 1.41 | 2.8 | 0.92 | 1.96 | 2.91 | 2.95 | 1.61 | 1.43 | 3.52 | 1.77 | 3.26 | 3.07
c1cc(CN2CCCNCCNCCCNCC2)ccc1CN1CCCNCCNCCCNCC1 [Plerixafor] | > 10000 |  |  |  |  |  |  |  |  |  | > 10000 |  | 
O=C(NC1CCNCC1)c1n[nH]cc1NC(=O)c1c(Cl)cccc1Cl [AT7519] | 381 | 400 | 307 | 356 | 1270 | 236 | 753 | 265 | 355 | 204 | 319 | 317 | 424
CC[C@@]1(O)C(=O)OCc2c1cc1n(c2=O)Cc2cc3c(CN(C)C)c(O)ccc3nc2-1 [Topotecan] | 1030 | 2880 | 40.2 | 54.9 | 20.5 | 39.6 | 33.8 | 772 | 42 | 35 | 1320 | 30.8 | 52.5
Cc1cc(OCc2nnc(SC3CCCC3)n2-c2cccnc2)ccc1-c1ccc(S(C)(=O)=O)cc1 [NMS-873] | 1680 | 455 | 1440 | 1410 | 506 | 114 | 250 | 909 | 1270 | 488 | 767 | 40.2 | 48.7
